According to patent US6559330B1, “CALCIUM COMPLEX OF [[(4R)-4-[BIS{CARBOXY-.KAPPA.O)METHYL]AMINO-.KAPPA.N]-6,9-BIS[(CARBOXY.KAPPA.O)METHYL]-1-[(4,4-DIPHENYLCYCLOHEXYL)OXY]-1-HYDROXY-2-OXA-6,9-DIAZA-1-PHOSPHAUNDECAN-11-YLIC-ACID-.KAPPA.N6,.KAPPA.N9,.KAPPA.011]1-OXIDATO(6-)]-, HEXAHYDROGEN, ITS SALTS, PHARMACEUTICAL AGENTS THAT …” (Schering Aktiengesellschaft, priority 1999, dated 2003):

Columns and labels:
[1] = target: human serum albumin (HSA) (Homo sapiens, UniProt P02768); details: cited from earlier work
human serum albumin (HSA), sequence (P02768 25-609): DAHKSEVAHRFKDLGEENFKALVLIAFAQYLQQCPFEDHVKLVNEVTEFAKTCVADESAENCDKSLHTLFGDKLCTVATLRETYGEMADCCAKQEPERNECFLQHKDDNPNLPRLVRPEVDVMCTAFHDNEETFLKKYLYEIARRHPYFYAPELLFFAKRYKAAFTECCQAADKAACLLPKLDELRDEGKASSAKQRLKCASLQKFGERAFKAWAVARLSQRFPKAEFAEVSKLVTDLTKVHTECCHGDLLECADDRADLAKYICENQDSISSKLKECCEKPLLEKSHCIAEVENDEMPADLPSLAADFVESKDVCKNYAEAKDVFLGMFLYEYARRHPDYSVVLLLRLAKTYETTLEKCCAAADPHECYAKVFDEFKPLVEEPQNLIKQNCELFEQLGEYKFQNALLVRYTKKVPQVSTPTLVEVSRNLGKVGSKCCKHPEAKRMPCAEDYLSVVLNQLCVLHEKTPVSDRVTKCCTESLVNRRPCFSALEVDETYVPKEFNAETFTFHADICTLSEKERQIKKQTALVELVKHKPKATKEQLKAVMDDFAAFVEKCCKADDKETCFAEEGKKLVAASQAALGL

[2] = HPLC content of Gd-MS-325 in the formulation after heating (100% method, external standard); format: physicochemical
Method: The low content and the yellow coloration indicate decomposition.
For comparison: Content after HPLC/95° C. (6 hours): 98.9%.

[3] = blood pool agent; cited from earlier work

content of Gd-MS-325 (HPLC) ([2]; 95° C. (6 hours), for comparison): 98.9% | content of Gd-MS-325 (HPLC) ([2]; in-situ formulation refluxed for 48 hours, low content and yellow coloration indicate decomposition): 96.3%
Substance: gadolinato(3-),[[(4R)-4[bis[(carboxy-.kappa.O)methyl]amino-.kappa.N]-6,9-bis[(carboxy-.kappa.O)methyl]-1-[(4,4-diphenylcyclohexyl)oxy]-1-hydroxy-2-oxa-6,9-diaza-1-phosphaundecan-11-ylic-acid-.kappa.N6,.kappa.N9,kappa.011]1-oxidato(6-)]-trihydrogen [Gd-MS-325]
binding to human serum albumin (HSA) [1]: binds to human serum albumin (HSA) | retention in the intravascular space [3]: retained in the intravascular space
